According to PMC7278688, “Anti-Hypertensive Activity of Novel Peptides Identified from Olive Flounder (Paralichthys olivaceus) Surimi” (Foods, 2020):
Entries after “also recorded” stand apart in the source; their conditions may differ. Where two headings read alike, the source gives them in different places. Where a SMILES comes first, the peptide text is derived from it. Where no end group is shown, it is not given here.

Assays:
[1] = target: T1, Angiotensin I-converting enzyme (ACE) (Homo sapiens, UniProt P12821); set-up: purchased Dojindo (Kumamoto, Japan); conditions: cited from earlier work
Source text: Table 1 IC50 values of ACE inhibitory peptides derived from Paralichthys olivaceus surimi. | column: IC50 Value (µM) || Several studies have investigated the relationship between protein intake and blood pressure. […] Our previous study confirmed that surimi manufactured from olive flounder could be used as a beneficial ingredient in dietary protein due to its antihypertensive effect. The study also identified novel peptides derived from surimi. ACE inhibition plays a major physiological role in regulating blood pressure. The current study investigated the ACE inhibition activity of the novel peptides ...
Target sequence in this assay (P12821 30-1306, species assumed): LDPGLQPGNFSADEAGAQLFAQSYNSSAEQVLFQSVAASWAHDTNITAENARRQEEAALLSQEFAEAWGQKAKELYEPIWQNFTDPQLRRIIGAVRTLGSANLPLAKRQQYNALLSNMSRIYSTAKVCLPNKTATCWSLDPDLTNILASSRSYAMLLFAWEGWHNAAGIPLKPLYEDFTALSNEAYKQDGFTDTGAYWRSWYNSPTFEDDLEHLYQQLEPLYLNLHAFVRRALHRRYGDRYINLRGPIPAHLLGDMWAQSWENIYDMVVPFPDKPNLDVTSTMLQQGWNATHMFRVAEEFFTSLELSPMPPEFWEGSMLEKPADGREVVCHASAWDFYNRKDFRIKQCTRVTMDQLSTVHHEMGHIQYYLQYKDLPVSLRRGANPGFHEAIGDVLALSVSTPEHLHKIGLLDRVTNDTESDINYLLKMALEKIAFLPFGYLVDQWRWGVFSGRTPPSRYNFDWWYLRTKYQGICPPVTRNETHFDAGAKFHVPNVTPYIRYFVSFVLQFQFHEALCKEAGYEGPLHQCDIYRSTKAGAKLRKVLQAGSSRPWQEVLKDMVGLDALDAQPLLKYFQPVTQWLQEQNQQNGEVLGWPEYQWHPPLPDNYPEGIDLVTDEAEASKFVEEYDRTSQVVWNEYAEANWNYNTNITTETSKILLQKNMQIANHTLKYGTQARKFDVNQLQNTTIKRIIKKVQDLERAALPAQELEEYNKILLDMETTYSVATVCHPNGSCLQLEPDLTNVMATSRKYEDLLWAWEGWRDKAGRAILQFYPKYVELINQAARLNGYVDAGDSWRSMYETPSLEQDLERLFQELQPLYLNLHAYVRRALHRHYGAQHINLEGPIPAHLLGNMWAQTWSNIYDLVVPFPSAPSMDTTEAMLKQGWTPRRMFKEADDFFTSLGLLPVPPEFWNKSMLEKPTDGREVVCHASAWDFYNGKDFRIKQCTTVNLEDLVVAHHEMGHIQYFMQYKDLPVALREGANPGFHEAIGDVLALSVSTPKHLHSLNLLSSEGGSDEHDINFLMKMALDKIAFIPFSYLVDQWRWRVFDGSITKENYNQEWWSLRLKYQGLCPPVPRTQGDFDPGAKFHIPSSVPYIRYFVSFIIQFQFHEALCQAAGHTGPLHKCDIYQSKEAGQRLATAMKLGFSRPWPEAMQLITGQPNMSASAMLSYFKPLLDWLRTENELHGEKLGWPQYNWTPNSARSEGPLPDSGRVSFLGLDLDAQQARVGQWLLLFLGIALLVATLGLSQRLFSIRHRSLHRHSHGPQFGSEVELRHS

[2] = tested on: spontaneously hypertensive rats (SHRs); test: Systolic blood pressure after oral administration in SHRs (tail-cuff); format: in vivo; conditions: for systolic blood pressure (SBP): 3 h after oral administration, 50 mg/kg in 1 mL saline, 6 SHRs per group, saline group 200–210 mmHg, mean ± SD; for change in blood pressure, overall result (in words): oral administration, 50 mg/kg, SHRs, time not stated
Procedure: SHRs with tail SBP over 180 mmHg were obtained from SLC Inc. (Shizuoka, Japan). Seven-week-old male, specific pathogen-free SHRs of approximately 300 g body weight were raised under room temperature (25 °C) with a 12-h light/dark cycle. The rats were fed a normal diet and tap water, with ad libitum feeding. All animals were administrated the dissolved samples in saline solution. The rats were divided into five groups comprised of a control group (saline); a group treated with peptide from sardine (positive control); and groups treated with any of three peptides (IVDR, WYK, and VASVI). Each was orally administered to 6 SHRs at a dose of 50 mg/kg which was dissolved in 1 mL saline. SBP was measured by a tail-cuff method before administration and at 3, 6, and 9 h post-administration using a CODA™ blood pressure monitor (Kent Scientific Corp., Torrington, CT, USA). The animal experiment received approval from the Animal Care and Use Committee of the Jeju National University (Approval NO. 2017-0017) and all experiments were performed in accordance with the guidelines.

[3] = tested on: human umbilical vein endothelial cells (HUVECs); test: NO production in HUVECs (Griess reagent); format: cell-based; conditions: 3 h, 540 nm, compared with control
Procedure: Cultures of human umbilical vein endothelial cells (HUVEC, ATCC* CRL-1730) were incubated at 37 °C in a cell incubator supplied with 5% CO2. Cell media compositions were based on those used in a previous study. Furthermore, production of NO was analyzed using Griess reagent (1% sulphanilamide and 0.1% naphthylethylenediamine dihydrochloride in 2.5% phosphoric acid), according to the method described by Ko et al.. HUVEC were seeded in 96-well plates at 1 × 10* cells/mL; after pre-incubation (24 h) the cells were treated without or with three concentrations of peptides (25, 50, and 100 μg/mL) for 3 h. Then the cells were treated with Griess reagent and incubated at 37 °C for 10 min in the dark. The […] was quantified using a microplate reader at 540 nm.

[4] = tested on: Akt (protein kinase B) in HUVECs; test: Phosphorylation of Akt in HUVECs, Western blot; format: cell-based, human; conditions: for phosphorylation level of Akt (in words): 25, 50, and 100 μg/mL, HUVECs pretreated 24 h, triplicate
Procedure: (§1) HUVECs were seeded on 6-well plates at a concentration of 1 × 10* cells/mL. Sixteen hours after seeding, the cells were pretreated with the peptides for 24 h. The experimental procedure was completed as previously described. The primary antibodies (p-Akt, p-eNOS, and β-actin) were used at 1:1000 dilutions and incubated with the membrane at 4 °C overnight. The secondary antibodies were used at 1:3000 dilutions. All antibodies were purchased from Cell Signaling Technology (Beverly, MA, USA).

[5] = target: T1, Angiotensin I-converting enzyme (ACE); test: ACE inhibitory activity assay (Dojindo ACE kit-WST); format: biochemical; set-up: purchased Dojindo (Kumamoto, Japan); conditions: for IC50: mean ± SD of triplicate experiments, read-out: IC50 value of ACE inhibition
Procedure: The inhibitory activity of ACE was measured using the Dojindo ACE kit-WST (Kumamoto, Japan) in accordance with the manufacturer’s protocols. The principles of the kit have been described in a previous study.
The inhibitory ratios were calculated as follows:Inhibition rate (%) = [(Control − Sample)/(Control − Blank)] × 100(1) where IC50 is the concentration of inhibitor required for 50% inhibition of an enzymatic activity.
Target sequence in this assay (P12821 30-1306, species assumed): as above

[6] = tested on: endothelial nitric oxide synthase (eNOS) in HUVECs; test: Phosphorylation of eNOS in HUVECs, Western blot; format: cell-based, human; conditions: positive control or overall result, concentration not given
Procedure: as §1

[7] = target: T1, Angiotensin I-converting enzyme (ACE)
Target sequence in this assay (P12821 30-1256): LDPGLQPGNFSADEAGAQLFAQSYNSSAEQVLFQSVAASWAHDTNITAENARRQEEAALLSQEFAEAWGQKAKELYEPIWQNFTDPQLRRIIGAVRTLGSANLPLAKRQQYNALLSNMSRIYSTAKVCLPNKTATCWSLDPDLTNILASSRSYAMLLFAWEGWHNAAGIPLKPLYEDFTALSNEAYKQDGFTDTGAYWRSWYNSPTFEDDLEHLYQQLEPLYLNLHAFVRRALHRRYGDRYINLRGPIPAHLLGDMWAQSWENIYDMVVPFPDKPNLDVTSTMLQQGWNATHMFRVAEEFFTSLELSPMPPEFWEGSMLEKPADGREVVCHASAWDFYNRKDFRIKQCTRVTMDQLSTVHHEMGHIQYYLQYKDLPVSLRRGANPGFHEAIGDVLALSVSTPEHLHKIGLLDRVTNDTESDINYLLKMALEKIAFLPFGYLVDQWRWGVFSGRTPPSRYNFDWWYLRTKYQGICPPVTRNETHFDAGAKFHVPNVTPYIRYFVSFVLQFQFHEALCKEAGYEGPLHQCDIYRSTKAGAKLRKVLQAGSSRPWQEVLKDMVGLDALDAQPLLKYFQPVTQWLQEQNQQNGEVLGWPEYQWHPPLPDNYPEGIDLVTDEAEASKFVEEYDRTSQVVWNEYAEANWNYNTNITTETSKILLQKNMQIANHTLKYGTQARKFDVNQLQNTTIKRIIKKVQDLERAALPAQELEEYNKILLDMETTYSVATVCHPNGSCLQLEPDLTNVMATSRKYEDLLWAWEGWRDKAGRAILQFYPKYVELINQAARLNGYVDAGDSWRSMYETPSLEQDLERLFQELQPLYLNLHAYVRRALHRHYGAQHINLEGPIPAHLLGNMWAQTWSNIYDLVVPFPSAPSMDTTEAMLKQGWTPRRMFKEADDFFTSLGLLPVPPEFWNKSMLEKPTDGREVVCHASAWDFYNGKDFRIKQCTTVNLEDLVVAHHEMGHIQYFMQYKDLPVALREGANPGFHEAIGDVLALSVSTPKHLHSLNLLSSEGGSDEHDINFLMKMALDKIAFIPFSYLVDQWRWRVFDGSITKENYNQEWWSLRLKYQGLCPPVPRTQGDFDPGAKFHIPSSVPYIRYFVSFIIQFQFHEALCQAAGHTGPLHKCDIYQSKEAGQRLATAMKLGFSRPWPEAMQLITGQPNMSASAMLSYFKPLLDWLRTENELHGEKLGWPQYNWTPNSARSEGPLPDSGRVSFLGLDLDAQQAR

[8] = literature peptides for comparison, read-out: IC50 of ACE inhibitory peptides isolated from food proteins
[9] = peptides at 25–100 μg/mL, means ± SD of triplicate

## ANSEVAQWR [from Trichiurus lepturus myosin]
[1]; [8]
  IC50: 89.6 µM

## Val-Tyr [Sardine peptide (Val-Tyr), reference compound]
[2]
  systolic blood pressure (SBP): 184 ± 2 mmHg
  change in blood pressure, overall result (in words): declined considerably
[1]; determined by Matsufuji et al., read-out: IC50 value of ACE inhibition (sardine peptide)
  IC50: 26 µM

## NCCCC[C@H](NC(=O)[C@H](Cc1ccc(O)cc1)NC(=O)[C@@H](N)Cc1c[nH]c2ccccc12)C(=O)O [WYK, Tryptophan-Tyrosine-Lysine] (H-Trp-Tyr-Lys-OH)
[3]; [9]
  NO production in HUVECs (in words): significantly higher
[4]
  phosphorylation level of Akt (in words): significantly increased
[2]
  systolic blood pressure (SBP): 173 ± 4 mmHg
  change in blood pressure, overall result (in words): effective at decreasing SBP in SHRs
[5]
  ACE inhibitory activity (in words): high Angiotensin I-converting Enzyme (ACE) inhibition activity; also recorded: high ACE inhibitory activity
  IC50: 33 ± 0.68 µM

## EALVSQLTR [from Trichiurus lepturus myosin]
[1]; [8]
  IC50: 91.5 µM

## [Ca+2] [calcium, reference compound]
[4]; HUVECs, positive control or overall result, concentration not given
  phosphorylation of Akt (in words): profoundly increased
[6]
  phosphorylation of eNOS (in words): profoundly increased

## CC[C@H](C)[C@H](N)C(=O)N[C@H](C(=O)N[C@@H](CC(=O)O)C(=O)N[C@@H](CCCNC(=N)N)C(=O)O)C(C)C [IVDR, Isoleucine-Valine-Aspartic acid-Arginine] (H-IVDR-OH)
[3]; 100 μg/mL
  NO production in HUVECs (in words): increased the production of NO only slightly
[4]
  phosphorylation level of Akt (in words): significantly increased
[2]
  change in blood pressure, overall result (in words): effective at decreasing SBP in SHRs
[5]
  ACE inhibitory activity (in words): high Angiotensin I-converting Enzyme (ACE) inhibition activity; also recorded: high ACE inhibitory activity
  IC50: 46.9 ± 0.32 µM

## Arg-Val-Cys-Leu-Pro (RVCLP) [from lizard fish]
[1]; [8]
  IC50: 175 µM

## ALGPQFY [from stone fish]
[1]; [8]
  IC50: 12 µM

## Trp-Tyr-Lys (WYK) (peptide)
[7]
  IC50 of inhibition of ACE enzymatic activity (Dojindo ACE kit-WST): 33 µM

## VASVI [VASVI, Valine-Alanine-Serine-Valine-Isoleucine]
[3]; [9]
  NO production in HUVECs (in words): significantly higher
[4]
  phosphorylation level of Akt (in words): significantly increased
[2]
  systolic blood pressure (SBP): 181 ± 2 mmHg
  change in blood pressure, overall result (in words): effective at decreasing SBP in SHRs
[5]
  ACE inhibitory activity (in words): high Angiotensin I-converting Enzyme (ACE) inhibition activity; also recorded: high ACE inhibitory activity
  IC50: 32.7 ± 1.32 µM

## Phe-Gly-Als-Ser-Thr-Arg-Gly-Ala (FGASTRGA; printed 'Als' at position 3 read as a typo for Ala) [from Alaska pollock frame]
[1]; [8]
  IC50: 14.7 µM

## Ala-Ser-Leu [from silkworm pupa]
[1]; [8]
  IC50: 102 µM

## IVDR [Ile-Val-Asp-Arg (IVDR)]
[7]
  IC50 of inhibition of ACE enzymatic activity (Dojindo ACE kit-WST): 46.9 µM

## VASVI [Val-Ala-Ser-Val-Ile (VASVI)]
[7]
  IC50 of inhibition of ACE enzymatic activity (Dojindo ACE kit-WST): 32.7 µM
